Inhibition data for 28 compounds are collected here from patent US8952034B2, “Fused heterocyclic compounds as ion channel modulators” (Gilead Sciences, Inc., priority 2009, dated 2015).

This assay concerns the target wild-type human cardiac sodium channel, hNav1.5 (Homo sapiens, UniProt Q14524). Put plainly: Late INa screening assay (automated whole cell patch clamp, PatchXpress). Particulars: HEK293 cells expressing hNav1.5, late INa generated with 10 μM Tefluthrin (or 50 nM ATX II); for inhibition at 1 µM: compound at 1 μM, read-out: LateINa_1 uM (percent block of late INa); for inhibition at 10 µM: compound at 10 μM, read-out: LateINa_10 uM (percent block of late INa). It is filed as cell-based. How it is done: The late sodium current (Late INa) and peak sodium current (Peak INa) assays are performed on an automated electrophysiology platform, PatchXpress 7000A (MDS Analytical Technologies, Sunnyvale, Calif.), which uses the whole cell patch clamp technique to measure currents through the cell membrane of up to 16 cells at a time. The assay uses an HEK293 (human embryonic kidney) cell line heterologously expressing the wild-type human cardiac sodium channel, hNav1.5, purchased from Millipore (Billerica, Mass.). No beta subunits were coexpressed with the Na channel alpha subunit. Cells are maintained with standard tissue culture procedures and stable channel expression is maintained with 400 μg/ml Geneticin in the culture medium. […] Experiments are carried out at 24-27° C.
For both the Late INa and Peak INa assays, series resistance compensation is set to 50% and whole-cell compensation is performed automatically. […] Currents through open sodium channels are automatically recorded and stored in the DataXpress2 database (MDS Analytical Technologies, Sunnyvale, Calif.). Analysis is performed using DataXpress2 analysis software and data are compiled in Excel.
Compound stocks are routinely made in glass vials to 10 mM in dimethyl sulfoxide (DMSO). In some cases, when compounds are not soluble in DMSO, they are made in 100% ethanol. Stocks are sonicated as necessary. The extracellular solution for screening Late INa is composed of: 140 mM NaCl, 4 mM KCl, 1.8 mM CaCl2, 0.75 mM MgCl2, and 5 mM HEPES with pH adjusted to 7.4 using NaOH. The extracellular solution for screening Peak INa is composed of: 20 mM NaCl, 120 mM N-methyl-D glucamine, 4 mM KCl, 1.8 mM CaCl2, 0.75 mM MgCl2, and 5 mM HEPES with pH adjusted to 7.4 using HCl. The intracellular solution used to perfuse the inside of the cells for both the Late INa and Peak INa assays contains: 120 mM CsF, 20 mM CsCl, 5 mM EGTA, 5 mM HEPES and pH adjusted to 7.4 with CsOH. […] The 0Na extracellular solution used at the end of each experiment for the Late INa and Peak INa assays to measure baseline current contains: 140 mM N-methyl-D-glucamine; 4 mM KCl; 1.8 mM CaCl2; 0.75 mM MgCl2; 5 mM HEPES and pH was adjusted to 7.4 with HCl.
For the Late INa assay, sodium channels are activated every 10 seconds (0.1 Hz) by depolarizing the cell membrane to −20 mV for 250 milliseconds (ms) from a holding potential of −120 mV. In response to a −20 mV voltage step, typical Nav1.5 sodium currents activate rapidly to a peak negative current and then inactivate nearly completely within […].
All compounds are tested to determine their activity in blocking the late sodium current. Late INa current is generated by adding 10 μM Tefluthrin (pyrethroid) to the extracellular solution while recording Na currents For some experiments, 50 nM ATX II (sea anemone toxin), another late INa activator, was used to generate the late component. […] After establishing the whole cell recording configuration, late INa activators are added to each well 4 times over a 16-17 minute period so that the late component of the Na current reaches a stable value. […] Measurements are made at the end of exposure to the third compound addition and values are normalized to the current level when all Na^+ is removed from the extracellular solution after two additions of 0Na-ECF. Results are reported as percent block of late INa
In general terms: In patch-clamp work, channel activity is measured electrically.

wild-type human cardiac sodium channel, hNav1.5, sequence (Q14524 whole entry): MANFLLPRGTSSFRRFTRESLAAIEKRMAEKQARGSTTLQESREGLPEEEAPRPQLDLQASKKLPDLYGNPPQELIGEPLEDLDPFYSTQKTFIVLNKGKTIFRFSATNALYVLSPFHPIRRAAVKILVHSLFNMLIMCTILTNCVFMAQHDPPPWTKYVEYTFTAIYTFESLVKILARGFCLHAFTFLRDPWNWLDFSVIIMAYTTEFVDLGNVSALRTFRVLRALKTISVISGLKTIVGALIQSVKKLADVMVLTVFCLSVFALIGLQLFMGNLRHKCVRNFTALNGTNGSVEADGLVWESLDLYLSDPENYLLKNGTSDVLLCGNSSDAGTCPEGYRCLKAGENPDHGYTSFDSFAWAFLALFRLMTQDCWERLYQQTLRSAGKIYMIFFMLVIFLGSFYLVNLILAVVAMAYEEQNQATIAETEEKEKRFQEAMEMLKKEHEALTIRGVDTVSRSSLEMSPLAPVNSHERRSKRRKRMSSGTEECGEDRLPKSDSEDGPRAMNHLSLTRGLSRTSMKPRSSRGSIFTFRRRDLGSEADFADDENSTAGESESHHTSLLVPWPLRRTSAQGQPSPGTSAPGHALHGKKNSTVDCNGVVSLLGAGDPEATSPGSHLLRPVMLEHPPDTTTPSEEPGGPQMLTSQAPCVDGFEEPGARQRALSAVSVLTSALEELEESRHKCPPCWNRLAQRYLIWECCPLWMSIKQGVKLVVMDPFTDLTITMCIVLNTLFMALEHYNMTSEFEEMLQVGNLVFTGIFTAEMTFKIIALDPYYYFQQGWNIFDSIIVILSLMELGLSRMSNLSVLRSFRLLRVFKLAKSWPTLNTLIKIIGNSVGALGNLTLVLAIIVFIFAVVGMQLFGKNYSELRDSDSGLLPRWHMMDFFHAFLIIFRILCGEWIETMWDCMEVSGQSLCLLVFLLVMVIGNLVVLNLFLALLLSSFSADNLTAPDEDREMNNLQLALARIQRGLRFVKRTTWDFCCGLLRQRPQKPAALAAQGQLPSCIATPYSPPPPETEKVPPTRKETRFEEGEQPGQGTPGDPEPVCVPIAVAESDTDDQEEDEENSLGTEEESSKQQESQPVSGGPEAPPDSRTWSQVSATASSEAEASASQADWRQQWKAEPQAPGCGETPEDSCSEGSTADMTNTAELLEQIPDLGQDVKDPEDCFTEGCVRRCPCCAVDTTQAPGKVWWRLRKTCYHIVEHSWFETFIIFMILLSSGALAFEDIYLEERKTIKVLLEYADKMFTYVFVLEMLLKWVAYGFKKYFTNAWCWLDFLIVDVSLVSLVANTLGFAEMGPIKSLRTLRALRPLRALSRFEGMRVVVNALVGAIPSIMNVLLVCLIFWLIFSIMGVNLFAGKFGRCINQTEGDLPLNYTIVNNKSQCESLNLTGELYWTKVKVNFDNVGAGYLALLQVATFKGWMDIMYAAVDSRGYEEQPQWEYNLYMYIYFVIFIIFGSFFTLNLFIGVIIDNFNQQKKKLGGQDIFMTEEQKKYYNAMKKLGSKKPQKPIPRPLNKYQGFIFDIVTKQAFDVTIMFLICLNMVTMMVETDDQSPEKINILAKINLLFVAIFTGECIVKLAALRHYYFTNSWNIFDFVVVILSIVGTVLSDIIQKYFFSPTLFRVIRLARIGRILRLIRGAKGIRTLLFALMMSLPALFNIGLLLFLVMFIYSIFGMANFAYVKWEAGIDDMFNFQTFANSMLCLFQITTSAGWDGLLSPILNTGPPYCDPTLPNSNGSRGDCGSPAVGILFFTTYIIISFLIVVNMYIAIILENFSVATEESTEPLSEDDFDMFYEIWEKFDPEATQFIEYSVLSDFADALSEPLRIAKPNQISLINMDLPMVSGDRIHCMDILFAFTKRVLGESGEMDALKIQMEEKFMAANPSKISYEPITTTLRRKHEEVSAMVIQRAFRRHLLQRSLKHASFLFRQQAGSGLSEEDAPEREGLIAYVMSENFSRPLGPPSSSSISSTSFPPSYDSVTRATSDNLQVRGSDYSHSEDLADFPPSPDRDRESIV

Regarding `FC(F)(F)COc1ccc(-c2ccc3nnc(C(F)(F)F)n3n2)cn1` [BHN-221, 6-[6-(2,2,2-trifluoroethoxy)pyridin-3-yl]-3-(trifluoromethyl)[1,2,4]triazolo[4,3-b]pyridazine], the inhibition at 1 µM came to 55%.
As for `Cc1nnc(-c2ccc(-c3ccc4nnc(C(F)(F)F)n4c3)cc2)o1` [BHN-71, 6-[4-(5-methyl-1,3,4-oxadiazol-2-yl)phenyl]-3-(trifluoromethyl)[1,2,4]triazolo[4,3-a]pyridine], the inhibition at 10 µM worked out at 20.5%.
As for `FC(F)c1nnc2cnc(-c3ccc(OC(F)(F)F)cc3)cn12` [BHN-23, 3-(difluoromethyl)-6-[4-(trifluoromethoxy)phenyl][1,2,4]triazolo[4,3-a]pyrazine], the inhibition at 1 µM worked out at 53.5% and the inhibition at 10 µM was 74.7%.
Consider `COCC(F)(F)c1nnc2ccc(C#Cc3ccc(C(F)(F)F)cc3)cn12` [BHN-234, 3-(1,1-difluoro-2-methoxyethyl)-6-{[4-(trifluoromethyl)phenyl]ethynyl}[1,2,4]triazolo[4,3-a]pyridine], for which the inhibition at 1 µM stood at 57.8%.
For the compound `FC(F)(F)c1ncc2ccc(-c3nc4ccccc4o3)cn12` [BHN-196, 2-[3-(trifluoromethyl)imidazo[1,5-a]pyridin-6-yl]-1,3-benzoxazole], the inhibition at 1 µM was 26.8%.
The same measure, in the same setting: next, `FC(F)(F)COCc1nnc2ccc(-c3ccc(OC(F)(F)F)cc3)cn12` [BHN-129, 3-[(2,2,2-trifluoroethoxy)methyl]-6-[4-(trifluoromethoxy)phenyl][1,2,4]triazolo[4,3-a]pyridine]: 48.4%.
With `FC(F)(F)c1ncc2ccc(-c3nccs3)cn12` [BHN-191, 6-(1,3-thiazol-2-yl)-3-(trifluoromethyl)imidazo[1,5-a]pyridine], the inhibition at 1 µM turned out to be 19.8%.
Still for that read-out and setting: next, `FC(F)(F)c1nnc2ccc(-c3ccc(OCC4CC4)cc3)cn12` [BHN-151, 6-[4-(cyclopropylmethoxy)phenyl]-3-(trifluoromethyl)[1,2,4]triazolo[4,3-a]pyridine]: 43.1%.
For `CC(C)(C)c1nnc2ccc(-c3ccc(OCC(F)(F)F)cc3)nn12` [BHN-36, 3-tert-butyl-6-[4-(2,2,2-trifluoroethoxy)phenyl][1,2,4]triazolo[4,3-b]pyridazine], the inhibition at 10 µM was 64.5%.
In the case of `Fc1ccc(Nc2ccc(-c3ccc4nnc(C(F)(F)F)n4c3)cc2)cc1` [BHN-284, 4-fluoro-N-{4-[3-(trifluoromethyl)[1,2,4]triazolo[4,3-a]pyridin-6-yl]phenyl}aniline], the inhibition at 1 µM was found to be 31.4%.
The same measure, in the same setting: next, `COc1nnc2ccc(-c3ccc(OC(F)(F)F)cc3)cn12` [BHN-185, 3-methoxy-6-[4-(trifluoromethoxy)phenyl][1,2,4]triazolo[4,3-a]pyridine]: 29.1%; `Cn1nc(COC(F)(F)c2nnc3ccc(-c4ccc(OC(F)(F)F)cc4)cn23)c2ccccc21` [BHN-307, 3-{difluoro[(1-methyl-1H-indazol-3-yl)methoxy]methyl}-6-[4-(trifluoromethoxy)phenyl][1,2,4]triazolo[4,3-a]pyridine]: 68.5%.
For `FC(F)(F)Oc1ccc(-c2ccc3nnc(C(F)(F)OCc4cccnn4)n3c2)cc1` [BHN-216, 3-[difluoro(pyridazin-3-ylmethoxy)methyl]-6-[4-(trifluoromethoxy)phenyl][1,2,4]triazolo[4,3-a]pyridine], the inhibition at 1 µM is 26.1%.
For `FC(F)(F)Oc1ccc(-c2ccc3nncn3n2)cc1` [BHN-25, 6-[4-(trifluoromethoxy)phenyl][1,2,4]triazolo[4,3-b]pyridazine], the inhibition at 10 µM was determined as 39%.
Consider `N#Cc1cccc(COC(F)(F)c2nnc3ccc(-c4ccc(OC(F)(F)F)cc4)cn23)c1` [BHN-261, 3-[(difluoro{6-[4-(trifluoromethoxy)phenyl][1,2,4]triazolo[4,3-a]pyridin-3-yl}methoxy)methyl]benzonitrile], for which the inhibition at 1 µM turned out to be 56.8%.
Turning to `COCC(F)(F)c1nnc2ccc(-c3ccc(OC(F)(F)F)cc3)cn12` [BHN-74, 3-(1,1-difluoro-2-methoxyethyl)-6-[4-(trifluoromethoxy)phenyl][1,2,4]triazolo[4,3-a]pyridine], the inhibition at 1 µM stood at 46.9% and the inhibition at 10 µM stood at 67%.
`COC(F)(F)c1nnc2ccc(-c3ccc(OC(F)(F)F)cc3)cn12` [BHN-140, 3-[difluoro(methoxy)methyl]-6-[4-(trifluoromethoxy)phenyl][1,2,4]triazolo[4,3-a]pyridine]: the inhibition at 1 µM came to 53.2%.
For the compound `Fc1ccc(Oc2ccc(-c3ccc4nnc(C(F)(F)F)n4c3)cc2)cc1` [BHN-64, 6-[4-(4-fluorophenoxy)phenyl]-3-(trifluoromethyl)[1,2,4]triazolo[4,3-a]pyridine], the inhibition at 1 µM amounted to 38.2% and the inhibition at 10 µM is 69.6%.
As to `Fc1ccc(COCc2nnc3ccc(-c4ccc(OC(F)(F)F)cc4)cn23)c(F)c1` [BHN-240, 3-{[(2,4-difluorobenzyl)oxy]methyl}-6-[4-(trifluoromethoxy)phenyl][1,2,4]triazolo[4,3-a]pyridine], the inhibition at 1 µM was found to be 83.4%.
On to `Cc1nnc2c(N)cc(-c3ccc(OC(F)(F)F)cc3)cn12` [BHN-69, 3-methyl-6-[4-(trifluoromethoxy)phenyl][1,2,4]triazolo[4,3-a]pyridin-8-amine], for which the inhibition at 10 µM stood at 32.1%.
Consider `CCC(O)(CC)C(F)(F)c1nnc2ccc(-c3ccc(OC(F)(F)F)cc3)cn12` [BHN-197, 3-(difluoro{6-[4-(trifluoromethoxy)phenyl][1,2,4]triazolo[4,3-a]pyridin-3-yl}methyl)pentan-3-ol], for which the inhibition at 1 µM came out at 25.4%.
For `Cn1c(COC(F)(F)c2nnc3ccc(-c4ccc(OC(F)(F)F)cc4)cn23)nc2ccccc21` [BHN-296, 3-{difluoro[(1-methyl-1H-benzimidazol-2-yl)methoxy]methyl}-6-[4-(trifluoromethoxy)phenyl][1,2,4]triazolo[4,3-a]pyridine], the inhibition at 1 µM was determined as 40.1%.
On to `FC(F)(F)Oc1ccc(-c2ccc3nnc(C(F)(F)Cl)n3c2)cc1` [BHN-308, 3-[chloro(difluoro)methyl]-6-[4-(trifluoromethoxy)phenyl][1,2,4]triazolo[4,3-a]pyridine], for which the inhibition at 1 µM was determined as 71.2%.
Regarding `FC(F)(F)Oc1ccc(-c2ccc3nnc(C(F)(F)OCC4CC4)n3c2)cc1` [BHN-214, 3-[(cyclopropylmethoxy)(difluoro)methyl]-6-[4-(trifluoromethoxy)phenyl][1,2,4]triazolo[4,3-a]pyridine], the inhibition at 1 µM came to 80.8%.
As to `COc1ccc(N2CCN(CCOC(F)(F)c3nnc4ccc(-c5ccc(OC(F)(F)F)cc5)cn34)CC2)cc1` [BHN-264, 3-(difluoro{2-[4-(4-methoxyphenyl)piperazin-1-yl]ethoxy}methyl)-6-[4-(trifluoromethoxy)phenyl][1,2,4]triazolo[4,3-a]pyridine], the inhibition at 1 µM came out at 54.3%.
`CCc1nnc2ccc(-c3ccc(Oc4ccccc4)cc3)nn12` [BHN-38, 3-ethyl-6-(4-phenoxyphenyl)[1,2,4]triazolo[4,3-b]pyridazine]: the inhibition at 1 µM amounted to 54.5% and the inhibition at 10 µM amounted to 79.3%.
`O=[N+]([O-])c1cc(F)ccc1Oc1ccc(-c2ccc3nnc(C(F)(F)F)n3c2)cc1` [BHN-110, 6-[4-(4-fluoro-2-nitrophenoxy)phenyl]-3-(trifluoromethyl)[1,2,4]triazolo[4,3-a]pyridine]: the inhibition at 1 µM was determined as 18.2%.
Take `FC(F)(F)c1ncc2ccc(-c3ncco3)cn12` [BHN-183, 6-(1,3-oxazol-2-yl)-3-(trifluoromethyl)imidazo[1,5-a]pyridine]: the inhibition at 1 µM came to 19.5%.
